Results on 1 compound are retold here after ChEMBL document CHEMBL1201862, “PubChem BioAssay data set” (2004).

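Growth conditions: 96-well plates. Treatment: test compound, 48 hours, 5 concentrations. Analysis: linear interpolation between bracketing concentrations; unreached endpoints set to highest concentration. GI50 is the concentration that inhibits growth by half.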 The source made the active and inactive calls. Cut-off read from the data, not from the text of the source: active = GI50 up to about 1.1 µM and inactive = higher.

Among the test systems are TK-10; 786-0; M14; HCT-15; SF-295; HCC 2998; SK-MEL-2; OVCAR-4; NCI-H460; Hs-578T; NCI-H522; LOX IMVI; T47D; SK-MEL-28; OVCAR-8; HT-29; BT-549; MOLT-4; MDA-MB-435; SF-268.
Assay in all cases: growth of human tumour cells (NCI), 48 h

As for `CCc1ccc2c(c1)/C(=C1/Nc3ccccc3C1=O)C(=O)N2`, the GI50 is 17 µM (inactive) in the experiment on TK-10; 5.78 µM (inactive) in the experiment on 786-0; 26.7 µM (inactive) in the experiment on M14; 31.7 µM in the experiment with HCT-15; 20.2 µM (inactive) in the experiment with SF-295; 15.7 µM (inactive) with HCC 2998. For the same compound, the GI50 in the experiment with SK-MEL-2 is 17.1 µM (inactive); with OVCAR-4 it was 7.82 µM (inactive); with NCI-H460, 23.3 µM (inactive); in the experiment with Hs-578T, 11 µM (inactive); with NCI-H522, 19.5 µM (inactive); with LOX IMVI, 50.7 µM (inactive). The GI50 was 4.65 µM (inactive) in the experiment on T47D; 96.6 µM (inactive) with SK-MEL-28; 7.46 µM (inactive) in the experiment with OVCAR-8; 25.4 µM (inactive) in the experiment with HT-29; 25.1 µM (inactive) in the experiment on BT-549; 19.2 µM (inactive) with MOLT-4. The GI50 in the experiment on MDA-MB-435 is 25.5 µM (inactive); in the experiment with SF-268, 19.6 µM (inactive).
